# B1: Papain: protease of plant origin with endopeptidase activity from the group of cysteine proteases (protein, UniProt P00784 134-345, looked up)
# Papain: IPEYVDWRQKGAVTPVKNQGSCGSCWAFSAVVTIEGIIKIRTGNLNEYSEQELLDCDRRSYGCNGGYPWSALQLVAQYGIHYRNTYPYEGVQRYCRSREKGPYAAKTDGVRQVQPYNEGALLYSIANQPVSVVLEAAGKDFQLYRGGIFVGPCGNKVDHAVAAVGYGPNYILIKNSWGTGWGENGYIRIKRGTGNSYGVCGLYTSSFYPVKN
# Legend:
# Format in all cases: biochemical
# eggshell membrane [1] = experiment: Testing of denaturing agents for eggshell membrane dissolution; conditions: denaturing agent used for eggshell membrane hydrolysis
# eggshell membrane [2] = experiment: Eggshell membrane solubilization with different enzymes and reducing agents (Example 1); conditions: 10 mg eggshell membrane/ml
# Description: A solution for solubilizing eggshell membrane was prepared at a ratio of 10 mg of eggshell membrane/ml of solution. Said solution comprised a denaturing agent, and more specifically a denaturing agent having detergent properties and an amphiphilic nature such as SDS, at a concentration of 0.5-5%. The solution also comprised a reducing agent, for which solutions of the following reducing agents were prepared at a concentration of 100 mM-1 M: sodium sulfite (Na2SO3), sodium hydrosulfite (Na2S2O4), sodium hydroxymethanesulfinate (HOCH2SO2Na), sodium metabisulfite (Na2S2O5), and dithiothreitol (DTT); these solutions were tested successively. Finally, a suitable buffer was added for maintaining the pH depending on the enzyme that was going to be used, having a concentration of 25-50 mM. Once the pH was adjusted with a pH-meter to the optimum pH for each enzyme, the enzyme previously prepared according to the manufacturer's specification at a concentration of 1% was added to the solution, such that the final concentration of the enzyme with respect to the total solution was 0.05-0.5%. The same was performed with each of the enzymes used in the present example.
# Once all the components were mixed and homogenized, said mixture was incubated at the maximum temperature of activity of each enzyme. The level of hydrolysis was assessed after 1, 12, and 24 hours of incubation and the results were compared against a control that is performed and only differs from the test solutions by the absence of enzyme.
# eggshell membrane [3] = experiment: Eggshell membrane solubilization with papain at different Na2S2O5 concentrations, with or without SDS (Example 2); conditions: 38° C., 12 h, 10 mg membrane/ml
# Description: Specifically, a solution for solubilizing 10 mg of eggshell membrane/ml of solution was prepared. Said solution only contained 100 mM sodium metabisulfite (Na2S2O5) (1). Three other similar solutions were prepared with an increasing order of concentration of Na2S2O5, i.e., 5 mM (2), 50 mM (3), and 100 mM (4), but in this case they contained 0.5-5% SDS in 50 mM HEPES buffer adjusted to pH 6.2 with a pH-meter. It was verified that the optimum range of sodium metabisulfite (Na2S2O5) for the present invention is between 50 and 150 mM. Papain previously activated in a 0.15 M sodium chloride solution was added such that the final concentration of the enzyme in the mixture was 0.05-0.5%. Once all the components were mixed and homogenized, said mixture was incubated at 38° C. for 12 h. The level of hydrolysis was evaluated after 12 hours of incubation and the results were compared against a control that is performed and only differs from the test solutions by the absence of enzyme.
# eggshell membrane [4] = experiment: Hydrolyzation of different amounts of eggshell membrane with 0.1% papain (Example 3); conditions: papain 0.1%, 12 h, 100 mM Na2S2O5, SDS, pH 6.2, 38° C.
# Description: Specifically, different solutions with different amounts of eggshell membrane were prepared such that final concentrations with respect to the total solution volume of 20, 30, 40, 50, 70, 100, and 150 mg of eggshell membrane/ml of solution were obtained. The solution contained 100 mM sodium metabisulfite (Na2S2O5), 0.5-5% SDS in 50 mM HEPES buffer adjusted to pH 6.2 with a pH-meter. 1% papain previously activated in a 0.15 M sodium chloride solution was then added such that the concentration of the enzyme with respect to the final volume of the mixture was 0.05-0.5%. Once all the components were mixed and homogenized, said mixture was incubated at 38° C. for 12 h and the results were compared against a control that is performed and only differs from the test solutions by the absence of enzyme. A clear, amber-colored solution was obtained, the color of which intensifies as the membrane concentration increases, in addition to the presence of a precipitate increasing, which indicates a lower level of hydrolysis.
# [5] = SDS + Na2S2O4, 24 h, pH optimum of each enzyme
# [6] = SDS + Na2SO3, 24 h, pH optimum of each enzyme
# [7] = SDS + DTT, 24 h, pH optimum of each enzyme
# [8] = SDS + HOCH2SO2Na, 24 h, pH optimum of each enzyme
# [9] = SDS + Na2S2O5, 24 h, pH optimum of each enzyme
Molecule,dissolution results with the denaturing agent (eggshell membrane [1]),"% solubilized (eggshell membrane [2]; SDS + DTT, 1 h, pH 6.2) [%]","% solubilized (eggshell membrane [2]; SDS + HOCH2SO2Na, 12 h, pH 6.2) [%]",% solubilized (eggshell membrane [2]; [5]) [%],"% solubilized (eggshell membrane [2]; SDS + Na2S2O5, 1 h, pH 6.2) [%]",% solubilized (eggshell membrane [2]; [6]) [%],% solubilized (eggshell membrane [2]; [7]) [%],% solubilized (eggshell membrane [2]; [8]) [%],% solubilized (eggshell membrane [2]; [9]) [%],other results
"CCCCCCCCCCCCOS(=O)(=O)[O-].[Na+] [SDS, sodium lauryl sulfate]",excellent results,,,,,,,,,
NC(N)=O [urea],without obtaining satisfactory dissolution results,,,,,,,,,
Bromelain,,100,100,0,100,0,,,,
Ficin,,,,0,,0,50,0,50,
Pepsin,,,,0,,0,0,0,0,
B1,,100,100,0,100,0,,,,"% solubilized (eggshell membrane [3]; (1) Na2S2O5 100 mM, no SDS): 0%; % solubilized (eggshell membrane [3]; (2) SDS + Na2S2O5 5 mM, pH 6.2): 0%; % solubilized (eggshell membrane [3]; (3) SDS + Na2S2O5 50 mM, pH 6.2): 70%; % solubilized (eggshell membrane [3]; (4) SDS + Na2S2O5 100 mM, pH 6.2): 100%; % of hydrolyzation (eggshell membrane [4]; membrane 20 mg/ml): 100%; % of hydrolyzation (eggshell membrane [4]; membrane 30 mg/ml): 100%; % of hydrolyzation (eggshell membrane [4]; membrane 50 mg/ml): 100%; % of hydrolyzation (eggshell membrane [4]; membrane 70 mg/ml): 100%; % of hydrolyzation (eggshell membrane [4]; membrane 100 mg/ml): 90%; % of hydrolyzation (eggshell membrane [4]; membrane 150 mg/ml): 80%"
